Earlier results as cited in US9763924B2, “Aminoester derivatives” (CHIESI FARMACEUTICI S.P.A., priority 2014, dated 2017).

Tested on: COPD patients
[1] = patients with severe disease who have frequent exacerbations and mucus hypersecretion

## O=C(Nc1c(Cl)cncc1Cl)c1ccc(OC(F)F)c(OCC2CC2)c1 [roflumilast]
COPD patients, oral, given over 4 weeks
  reduction of the numbers of neutrophils in sputum: 36%
[1]
  improvement of FEV 1: approximately 50 mL
  reduction of exacerbation: about 15%
